Source: US11084781B2, “Diarylureas as CB1 allosteric modulators” (Research Triangle Institute, priority 2017, dated 2021)
Where two headings read alike, the source gives them in different places.

Columns and labels:
human CB1 receptor [1] = biological target: T1, human CB1 receptor (Homo sapiens, UniProt P21554); assay: CB1 calcium mobilization assay (antagonist mode, against EC80 of CP55,940); type: cell-based
T1 construct: host or cells: CHO-RD-HGA16 cells (CHO cells overexpressing promiscuous Galpha16)
Description: CHO-RD-HGA16 cells (Molecular Devices, CA) stably expressing the human CB1 receptor were plated into 96-well black-walled assay plates at 25,000 cells/well in 100 μL of Ham's F12 (supplemented with 10% fetal bovine serum, 100 units of penicillin/streptomycin, and 100 μg/mL Normocin) and incubated overnight at 37° C., 5% CO2. Calcium 5 dye (Molecular Devices, CA) was reconstituted according to the manufacturer's instructions. The reconstituted dye was diluted 1:40 in prewarmed (37° C.) assay buffer (1×HBSS, 20 mM HEPES, 2.5 mM probenecid, pH 7.4 at 37° C.). Growth medium was removed, and the cells were gently washed with 100 μL of prewarmed (37° C.) assay buffer. […] After the pretreatment incubation period, the plate was read with a FLIPR Tetra (Molecular Devices, CA). […] Relative fluorescence units (RFU) were plotted against the log of compound concentrations. Data were fit to a three-parameter logistic curve to generate IC50 values (GraphPad Prism 6.0, CA). […] Test compound RFUs were compared to the CP55,940 Emax RFUs to generate % Emax values.
In these assays, CHO cells that overexpress the promiscuous Gα16 protein were engineered to stably express the CB1 or CB2 receptor. Compounds were evaluated for their ability to decrease the mobilization of intracellular calcium levels stimulated by CP55,940.

human CB1 receptor [2] = biological target: T1, human CB1 receptor; assay: CB1 calcium mobilization assay, agonist screen; type: cell-based; settings: 10,000 nM final concentration, mean ± SD
Description: CHO-RD-HGA16 cells (Molecular Devices, CA) stably expressing the human CB1 receptor were plated into 96-well black-walled assay plates at 25,000 cells/well in 100 μL of Ham's F12 (supplemented with 10% fetal bovine serum, 100 units of penicillin/streptomycin, and 100 μg/mL Normocin) and incubated overnight at 37° C., 5% CO2. Calcium 5 dye (Molecular Devices, CA) was reconstituted according to the manufacturer's instructions. The reconstituted dye was diluted 1:40 in prewarmed (37° C.) assay buffer (1×HBSS, 20 mM HEPES, 2.5 mM probenecid, pH 7.4 at 37° C.). Growth medium was removed, and the cells were gently washed with 100 μL of prewarmed (37° C.) assay buffer. The cells were incubated for 45 min at 37° C., 5% CO2 in 200 μL of the diluted Calcium 5 dye solution. […] Serial dilutions of the test compounds were prepared at 10× the desired final concentration in 2.25% BSA/4.5% DMSO/4.5% EtOH/assay buffer. After the dye loading incubation period, the cells were pretreated with 25 μL of the test compound serial dilutions and incubated for 15 min at 37° C. After the pretreatment incubation period, the plate was read with a FLIPR Tetra (Molecular Devices, CA). Calcium-mediated changes in fluorescence were monitored every 1 s over a 90 s time period, with the Tetra adding 25 μL of the CP55,940 EC80 concentration at the 10s time point (excitation/emission: 485/525 nm). Relative fluorescence units (RFU) were plotted against the log of compound concentrations. Data were fit to a three-parameter logistic curve to generate IC50 values (GraphPad Prism 6.0, CA). […] For agonist screens, the above procedure was followed except that cells were pretreated with 2.25% BSA/4.5% DMSO/4.5% EtOH/assay buffer and the Tetra added single concentration dilutions of the test compounds prepared at 10× the desired final concentration in 0.25% BSA/0.5% DMSO/0.5% EtOH/assay buffer. Test compound RFUs were compared to the CP55,940 Emax RFUs to generate % Emax values.

CB1 receptor = biological target: T2, CB1 receptor (Mus musculus, UniProt P47746); assay: [35S]GTP-γ-S binding assay in mouse cerebellar membranes, CP55,940-stimulated; type: biochemical; settings: CP55,940 (100 nM) stimulation, mean (95% confidence interval)
T2 construct: from tissue; host or cells: cerebellar membranes of adult male CD-1 mice
Description: Cerebella from adult male CD-1 mice were dissected on ice, snap frozen, and stored at −80° C. until the day of the experiment. Cerebella were homogenized by polytron in membrane buffer (50 mM Tris, 3 mM MgCl2, 0.2 mM EGTA, 100 mM NaCl, pH 7.4) on ice, centrifuged for 10 min at 40,000×g at 4° C. The supernatant was discarded and the pellet was suspended in membrane buffer, homogenized, and centrifuged again for 10 min at 40,000×g. The pellet was resuspended in membrane buffer and protein quantified by Bradford method.
CB1 receptor agonist CP55,940 was employed as the agonist probe.

[3] = Table 1, against EC80 (100 nM) of CP55,940, mean ± S.E.M., read-out: CB1 calcium assay IC50

T2 sequence (P47746 whole entry): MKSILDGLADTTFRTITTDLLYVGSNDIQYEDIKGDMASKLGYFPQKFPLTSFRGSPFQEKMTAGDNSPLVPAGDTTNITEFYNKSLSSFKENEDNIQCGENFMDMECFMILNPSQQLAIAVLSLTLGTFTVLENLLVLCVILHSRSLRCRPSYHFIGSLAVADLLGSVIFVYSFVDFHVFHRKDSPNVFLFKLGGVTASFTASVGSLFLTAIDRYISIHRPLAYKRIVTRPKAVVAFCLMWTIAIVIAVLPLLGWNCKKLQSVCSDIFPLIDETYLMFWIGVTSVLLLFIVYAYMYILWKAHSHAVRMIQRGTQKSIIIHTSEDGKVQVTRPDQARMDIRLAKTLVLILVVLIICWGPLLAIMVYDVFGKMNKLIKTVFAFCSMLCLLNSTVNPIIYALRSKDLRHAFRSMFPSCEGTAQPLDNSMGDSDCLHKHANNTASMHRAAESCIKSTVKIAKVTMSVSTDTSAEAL
T1 sequence (P21554 whole entry): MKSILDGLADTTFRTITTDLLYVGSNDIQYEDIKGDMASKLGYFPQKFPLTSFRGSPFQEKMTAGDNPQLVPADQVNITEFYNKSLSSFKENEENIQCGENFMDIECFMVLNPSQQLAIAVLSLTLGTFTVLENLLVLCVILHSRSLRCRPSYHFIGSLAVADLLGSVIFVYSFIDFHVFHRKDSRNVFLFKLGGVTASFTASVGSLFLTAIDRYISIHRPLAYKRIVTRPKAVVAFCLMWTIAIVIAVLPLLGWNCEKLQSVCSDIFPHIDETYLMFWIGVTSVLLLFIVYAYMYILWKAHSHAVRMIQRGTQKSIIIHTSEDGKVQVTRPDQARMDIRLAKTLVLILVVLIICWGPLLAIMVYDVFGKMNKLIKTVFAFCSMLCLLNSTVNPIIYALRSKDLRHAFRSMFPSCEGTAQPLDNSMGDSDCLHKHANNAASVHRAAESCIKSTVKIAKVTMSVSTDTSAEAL

Structure (SMILES) | IC50 (human CB1 receptor [1]; [3]) | CB1 calcium assay Agonist screen (% CP55, 940 Emax) (human CB1 receptor [2]; Table 1) | IC50 (CB1 receptor) | also measured
COc1cccc(-c2cccc(NC(=O)Nc3ccc(Cl)cc3)c2)n1 [Compound 15, 3-(4-Chlorophenyl)-1-[3-(6-methoxypyridin-2-yl)phenyl]urea] | 0.231 ± 0.014 µM | 2.4 ± 0.2 % CP55, 940 Emax | – | –
Cc1ccnc(-c2cccc(NC(=O)Nc3ccc(Cl)cc3)c2)c1 [Compound 16, 3-(4-Chlorophenyl)-1-[3-(4-methylpyridin-2-yl)phenyl]urea] | – | 2.9 ± 0.1 % CP55, 940 Emax | – | –
COc1cc(-c2cccc(NC(=O)Nc3ccc(Cl)cc3)c2)ccn1 [Compound 17, 3-(4-Chlorophenyl)-1-[3-(2-methoxypyridin-4-yl)phenyl]urea] | 0.133 ± 0.006 µM | 23.4 ± 1.9 % CP55, 940 Emax | 1.32 µM | –
O=C(Nc1ccc(Cl)cc1)Nc1cccc(-c2ccccn2)c1 [Compound 18, 3-(4-Chlorophenyl)-1-[3-(pyridin-2-yl)phenyl]urea] | 0.047 ± 0.013 µM | 8.8 ± 3.1 % CP55, 940 Emax | 2.65 µM | –
O=C(Nc1ccc(Cl)cc1)Nc1cccc(-c2cccnc2)c1 [Compound 19, 3-(4-Chlorophenyl)-1-[3-(pyridin-3-yl)phenyl]urea] | 0.244 ± 0.045 µM | 34.2 ± 9.3 % CP55, 940 Emax | – | –
O=C(Nc1ccc(Cl)cc1)Nc1cccc(-c2cncnc2)c1 [Compound 21, 3-(4-Chlorophenyl)-1-[3-(pyrimidin-5-yl)phenyl]urea] | 0.29 ± 0.024 µM | 2.5 ± 6.2 % CP55, 940 Emax | – | –
O=C(Nc1ccc(Cl)cc1)Nc1cccc(-c2ccccc2)c1 [Compound 22, 3-(4-Chlorophenyl)-1-(3-phenylphenyl)urea] | 0.032 ± 0.007 µM | 5.1 ± 0.8 % CP55, 940 Emax | 0.437 µM | –
COc1cccc(-c2cccc(NC(=O)Nc3ccc(Cl)cc3)c2)c1 [Compound 23, 3-(4-Chlorophenyl)-1-[3-(3-methoxyphenyl)phenyl]urea] | 0.081 ± 0.01 µM | 12.5 ± 1.9 % CP55, 940 Emax | 0.827 µM | –
O=C(Nc1ccc(Cl)cc1)Nc1cccc(-c2cccc(O)c2)c1 [Compound 24, 3-(4-Chlorophenyl)-1-[3-(3-hydroxyphenyl)phenyl]urea] | 0.84 ± 0.13 µM | 9.8 ± 1.6 % CP55, 940 Emax | – | –
O=C(Nc1ccc(Cl)cc1)Nc1cccc(-c2ccc3c(c2)OCO3)c1 [Compound 26, 1-[3-(2H-1,3-Benzodioxol-5-yl)phenyl]-3-(4-chlorophenyl)urea] | 0.07 ± 0.014 µM | 9.8 ± 3.5 % CP55, 940 Emax | 0.619 µM | –
Cc1cccc(-c2cccc(NC(=O)Nc3ccc(Cl)cc3)c2)c1 [Compound 27, 3-(4-Chlorophenyl)-1-[3-(3-methylphenyl)phenyl]urea] | – | – | 0.456 µM | –
Cc1ccccc1-c1cccc(NC(=O)Nc2ccc(Cl)cc2)c1 [Compound 28, 3-(4-Chlorophenyl)-1-[3-(2-methylphenyl)phenyl]urea] | 0.19 ± 0.045 µM | 4.4 ± 2.7 % CP55, 940 Emax | – | –
O=C(Nc1ccc(Cl)cc1)Nc1cccc(-c2cccc([N+](=O)[O-])c2)c1 [Compound 29, 3-(4-Chlorophenyl)-1-[3-(3-nitrophenyl)phenyl]urea] | 0.027 ± 0.002 µM | – | 0.452 µM | –
O=C(Nc1ccc(Cl)cc1)Nc1cccc(-c2ccc(Cl)cc2)c1 [Compound 30, 3-(4-Chlorophenyl)-1-[3-(4-chlorophenyl)phenyl]urea] | 0.095 ± 0.009 µM | 21.3 ± 3.7 % CP55, 940 Emax | – | –
O=C(Nc1ccc(Cl)cc1)Nc1cccc(-c2c(Cl)cccc2Cl)c1 [Compound 33, 3-(4-Chlorophenyl)-1-[3-(2,6-dichlorophenyl)phenyl]urea] | 0.338 ± 0.019 µM | 17.2 ± 3.1 % CP55, 940 Emax | – | –
O=C(Nc1ccc(Cl)cc1)Nc1cccc(-c2ccc(F)cc2F)c1 [Compound 35, 3-(4-Chlorophenyl)-1-[3-(2,4-difluorophenyl)phenyl]urea] | 0.018 ± 0.001 µM | – | 0.353 µM | –
CC(C)(C)c1ccc(-c2cccc(NC(=O)Nc3ccc(Cl)cc3)c2)cc1 [Compound 36, 3-(4-Chlorophenyl)-1-[3-(4-tert-butylphenyl)phenyl]urea] | 0.591 ± 0.048 µM | 4.0 ± 1.0 % CP55, 940 Emax | – | –
CC(C)(C)c1cc(-c2cccc(NC(=O)Nc3ccc(Cl)cc3)c2)cc(C(C)(C)C)c1 [Compound 37, 3-(4-Chlorophenyl)-1-[3-(3,5-di-tert-butylphenyl)phenyl]urea] | 0.46 ± 0.039 µM | 10.4 ± 2.1 % CP55, 940 Emax | – | –
O=C(Nc1ccc(Cl)cc1)Nc1cccc(-c2ccc(-c3ccccc3)cc2)c1 [Compound 39, 3-(4-Chlorophenyl)-1-[3-(4-phenylphenyl)phenyl]urea] | 1.34 ± 0.37 µM | −0.7 ± 2.4 % CP55, 940 Emax | – | –

Structure (SMILES) | IC50 (human CB1 receptor [1]; [3]) | CB1 calcium assay Agonist screen (% CP55, 940 Emax) (human CB1 receptor [2]; Table 1) | IC50 (CB1 receptor) | also measured
O=C(Nc1ccc(Cl)cc1)Nc1cccc(-c2ccc(C(=O)c3ccccc3)cc2)c1 [Compound 40, 3-(4-Chlorophenyl)-1-[3-(4-benzoylphenyl)phenyl]urea] | – | 12.9 ± 1.7 % CP55, 940 Emax | – | –
O=C(Nc1ccc(Cl)cc1)Nc1cccc(-c2ccc3ccccc3c2)c1 [Compound 42, 3-(4-Chlorophenyl)-1-[3-(naphthalen-2-yl)phenyl]urea] | – | 6.9 ± 0.5 % CP55, 940 Emax | 1.52 µM | –
O=C(Nc1ccc(Cl)cc1)Nc1cccc(-c2ccc3ccccc3n2)c1 [Compound 43, 3-(4-Chlorophenyl)-1-[3-(quinolin-2-yl)phenyl]urea] | – | 4.5 ± 0.7 % CP55, 940 Emax | 1.89 µM | –
O=C(Nc1ccc(Cl)cc1)Nc1cccc(-c2ccc3c(c2)Cc2ccccc2-3)c1 [Compound 45, 3-(4-Chlorophenyl)-1-[3-(9H-fluoren-2-yl)phenyl]urea] | 1.26 ± 0.16 µM | −0.1 ± 0.1 % CP55, 940 Emax | – | –
O=C(Nc1ccc(Cl)cc1)Nc1cccc(-c2ccoc2)c1 [Compound 46, 3-(4-Chlorophenyl)-1-[3-(furan-3-yl)phenyl]urea] | 0.041 ± 0.009 µM | – | 0.44 µM | –
O=C(Nc1ccc(Cl)cc1)Nc1ccc(-c2ccccc2)cc1 [Compound 59, 3-(4-Chlorophenyl)-1-(4-phenylphenyl)urea] | – | – | – | IC50 (human CB1 receptor [1]; Table 2, against EC80 (100 nM) of CP55,940, mean ± S.E.M., read-out: CB1 calcium assay IC50): 0.066 ± 0.009 µM; CB1 calcium assay Agonist screen (% CP55, 940 Emax) (human CB1 receptor [2]; Table 2): 21 ± 4 % CP55, 940 Emax
O=C(Nc1ccc(Cl)cc1)Nc1cccc(N2CCCCC2)c1 [Compound 76, 3-(4-Chlorophenyl)-1-[3-(piperidin-1-yl)phenyl]urea] | 0.174 ± 0.031 µM | 1.1 ± 0 % CP55, 940 Emax | – | –
O=C(Nc1ccc(Cl)cc1)Nc1cccc(N2CCOCC2)c1 [Compound 77, 1-(4-Chlorophenyl)-3-[3-(morpholin-4-yl)phenyl]urea] | 0.36 ± 0.064 µM | 12.4 ± 1.8 % CP55, 940 Emax | – | –
O=C(Nc1ccc(Cl)cc1)Nc1cccc(N2CCCC2)c1 [Compound 78, 1-(4-Chlorophenyl)-3-[3-(pyrrolidin-1-yl)phenyl]urea] | 0.04 ± 0.004 µM | 0.6 ± 0.5 % CP55, 940 Emax | – | –
CN1CCN(c2cccc(NC(=O)Nc3ccc(Cl)cc3)c2)CC1 [Compound 79, 1-(4-Chlorophenyl)-3-[3-(4-methylpiperazin-1-yl)phenyl]urea] | 2.88 µM | 27.6 ± 2.0 % CP55, 940 Emax | – | –
O=C(Nc1ccc(Cl)cc1)Nc1cccc(N2CCC2)c1 [Compound 80, 3-[3-(Azetidin-1-yl)phenyl]-1-(4-chlorophenyl)urea] | 0.035 ± 0.005 µM | – | 1.38 µM | –
O=C(Nc1ccc(Cl)cc1)Nc1cccc(N2CCC(F)(F)CC2)c1 [Compound 81, 3-(4-Chlorophenyl)-1-[3-(4,4-difluoropiperidin-1-yl)phenyl]urea] | 0.092 ± 0.009 µM | 14.0 ± 0.6 % CP55, 940 Emax | – | –
O=C(Nc1ccc(Cl)cc1)Nc1cccc(N2C3CCC2CC3)c1 [Compound 82, 3-(4-Chlorophenyl)-1-{3-[(1S,4S)-7-azabicyclo[2.2.1]heptan-7-yl]phenyl}urea] | – | 5.5 ± 1.3 % CP55, 940 Emax | – | IC50 (human CB1 receptor [1]): 2.7 µM
O=C(Nc1ccc(Cl)cc1)Nc1cccc(N2CCCCCC2)c1 [Compound 83, 1-[3-(Azepan-1-yl)phenyl]-3-(4-chlorophenyl)urea] | 0.35 ± 0.037 µM | 18.6 ± 1.1 % CP55, 940 Emax | – | –
CN(C)c1cccc(NC(=O)Nc2ccc(Cl)cc2)c1 [Compound 85, 1-(4-Chlorophenyl)-3-[3-(dimethylamino)phenyl]urea] | 0.113 ± 0.019 µM | 14.5 ± 4.9 % CP55, 940 Emax | – | –
CCN(CC)c1cccc(NC(=O)Nc2ccc(Cl)cc2)c1 [Compound 86, 3-(4-Chlorophenyl)-1-[3-(diethylamino)phenyl]urea] | 0.297 ± 0.037 µM | 20.9 ± 0.2 % CP55, 940 Emax | – | –
O=C(Nc1ccc(Cl)cc1)Nc1cccc(CN2CCCC2)c1 [Compound 90, 3-(4-Chlorophenyl)-1-[3-(pyrrolidin-1-ylmethyl)phenyl]urea] | > 10 µM | 27.5 ± 4.5 % CP55, 940 Emax | – | –
COc1cccc(NC(=O)Nc2ccc(Cl)cc2)c1 [Compound 91, 3-(4-Chlorophenyl)-1-(3-methoxyphenyl)urea] | 0.52 ± 0.036 µM | 13.6 ± 2.4 % CP55, 940 Emax | – | –
O=C(Nc1ccc(Cl)cc1)Nc1cccc(OC2CCCC2)c1 [Compound 95, 3-(4-Chlorophenyl)-1-[3-(cyclopentyloxy)phenyl]urea] | 0.277 ± 0.036 µM | 11.7 ± 1.4 % CP55, 940 Emax | – | –
